This is an account of results in PMC3454376, “Salidroside Improves Behavioral and Histological Outcomes and Reduces Apoptosis via PI3K/Akt Signaling after Experimental Traumatic Brain Injury” (PLoS ONE, 2012).

Common to all, as to assay type: in vivo, mice
One data set concerns p-Bad. The data set can be described thus: Western blot, injured cortex. The settings on record: 20 mg/kg ip 10 min after CCI; days 1 and 3; P>0.05. The protocol:
(§1) Mice were anesthetized and positioned in a stereotaxic frame. LY294002 (200 nM in 0.5 µL of saline) or equal amount of physiological saline was intracerebroventricularly (icv) injected at 30 min before CCI as previously described. A 1 mm cranial burr hole was drilled into the skull. A 30-gauge needle on a Hamilton syringe was implanted into the lateral ventricle using stereotactic coordinates: 1.5 mm posterior to bregma and 1.0 mm right lateral to the midline, 2 mm in depth. LY294002 or saline was infused into the brain at a rate of 0.05 µL/min over 10 min with an infusion pump (KDS 310, KD Scientific Inc., Holliston, MA, USA), and the needle was left in place for an additional 20 min to prevent reflux. After the needle was removed, CCI procedure was conducted immediately. Sham-operated mice were infused icv with saline, but were not subjected to CCI.
(§2) Three sets of experiments were performed. The first set was to investigate the protective effects of salidroside. All animals were randomized into 1 of 3 groups (sham injury, CCI + vehicle, CCI + SALD 20). Surgery/injury, behavioral testing, and tissue analyses were performed by different individuals. Behavioral testing and tissue analyses were performed by individuals blinded to the treatment group. Salidroside (Cayman Chemical, Ann Arbor, MI, USA) dissolved in normal saline (0.25 mL) or a corresponding volume of vehicle (saline) was administered intraperitoneally 10 min following injury. Testing after injury was completed as follows: 1) behavioral testing at days 1, 4, 7, 14, 21, and 28 (n = 8–10 mice/group); 2) cresyl violet staining at day 28 (n = 9 mice/group); 3) histology, determination of brain water content, and western blot analysis at day 1 or 3 (n = 5–6 mice/group). To determine the optimal dose of salidroside, a pilot study was performed using 2 different doses (20 and 50 mg/kg) administered 10 min after injury, and neurological deficits and tissue damage were evaluated as the main outcomes. […] The second set of experiment was to assess the effect of the inhibition of PI3K/Akt with the specific PI3K inhibitor, LY294002 (Cell Signaling Technology, Danvers, MA, USA), on salidroside effects. Animals were randomized into 4 groups. Mice received either: 1) icv pretreatment of LY294002 followed by SALD 20 after CCI (S20Y group); or 2) icv pretreatment of saline (vehicle control) followed by SALD 20 after CCI (S20V group). 3) Mice were infused icv with saline and were subjected to sham injury. 4) Mice were infused icv with LY294002 and were subjected to sham injury. Testing after injury was completed as follows: 1) cresyl violet staining at day 28 (n = 6 mice/group); 2) western blot analysis at day 1 (n = 6 mice/group). The third set of experiment was performed to examine the neuroprotective time window afforded by salidroside. Mice received intraperitoneal SALD 20 or vehicle (saline) at 3 or 6 h following CCI and were sacrificed 1 day later for FJB staining and western blot analysis (n = 6 mice/group).
(§3) Brains of injured or sham animals were collected 1 day and 3 days post CCI or sham surgery, and a 4 mm coronal section from the injured area over the parietal cortex and ipsilateral hippocampus were collected. The protein samples were obtained from tissue homogenates in 300 µL of ice-cold reagent (T-PER reagent; Pierce Biotechnology, Rockford, IL, USA) with a complete mini protease inhibitor cocktail (Roche Molecular Biochemicals) centrifuged at 14000g for 30 min. Protein concentration was determined by Bradford reagent spectrophotometrically at A595. Equal amounts of protein samples were denatured in gel-loading buffer at 100°C for 5 min, and then loaded onto sodium dodecyl sulfate-polyacrylamide gels to be separated. Separated proteins were transferred to Immobilon-P membranes (Millipore, Billerica, MA, USA), blocked with the use of 5% milk in PBST and probed with primary antibodies. […]
(In western blotting, separated proteins are transferred to a membrane and probed.)

A further data set concerns p-Akt Thr308. The data set can be described thus: Western blot, injured cortex. The procedure: as §1, §2, §3
For a further data set, the system named is p-Akt Ser473. The data set can be described thus: Western blot, injured cortex. The settings on record: for p-Akt Ser473 level, % of the vehicle level: 20 mg/kg ip 10 min after CCI. The procedure: as §1, §2, §3
The test system of another data set is p-FOXO1. The data set can be described thus: Western blot, injured cortex. The settings on record: 20 mg/kg ip 10 min after CCI; days 1 and 3; P>0.05. The protocol:
as §1, §2, §3

The nature of data set [1]: Metabolic characteristics: serum BUN, CRE, ALT. The settings on record: for BUN / CRE: mean ± SEM, n = 4–5 mice/group. The protocol:
as §2
Following terminal anesthesia, venous blood was collected via direct right atrial puncture. The obtained blood was centrifuged (3500 rpm for 5 min), and the serum was stored at −20°C until analysis. A chemistry analyzer (Synchron Clinical System LX20; Beckman Coulter, Fullerton, CA, USA) was used to measure serum BUN and CRE to assess renal function, and ALT to assess liver function.

Where [2] appears, read: 20 mg/kg ip 10 min after injury, day 1.

Take `OC[C@H]1O[C@@H](OCCc2ccc(O)cc2)[C@H](O)[C@@H](O)[C@@H]1O` [SALD, salidroside]: the “p-Bad level versus vehicle group” value in the data set on p-Bad is on record as “no difference”. The “p-Akt Thr308 level, % of the vehicle level” value in the data set on p-Akt Thr308 (20 mg/kg ip 10 min after CCI, day 3, P<0.05) came to 176.0%. The “increase of p-Akt Thr308 level” value with p-Akt Thr308 (setting [2]) worked out at 30.3%. The “change of p-Akt Thr308 level (attenuated by)” value in the data set with p-Akt Thr308 (20 mg/kg ip 3 h after injury, day 1, not significant) is reported as 19.5%. Besides, the “p-Akt Ser473 level, % of the vehicle level” value with p-Akt Ser473 (day 1, P<0.05) turned out to be 200.7%; in the data set on p-Akt Ser473 (day 3, P>0.05), 146.9%. Besides, the “increase of p-Akt Ser473 level” value with p-Akt Ser473 (setting [2]) worked out at 100.7%. In addition, the “change of p-Akt Ser473 level (attenuated by)” value in the data set on p-Akt Ser473 (20 mg/kg ip 3 h after injury, day 1) is 46.2%. Moreover, the “p-FOXO1 level versus vehicle group” value in the data set with p-FOXO1 is “no difference”. Besides, the “plasma concentrations of BUN, CRE, ALT (effect of treatment)” value in data set [1] (20 mg/kg) is “did not alter”. The BUN in data set [1] (SALD 20 mg/kg) amounted to 23.2 ± 2.49 mg/dL; in data set [1] (SALD 50 mg/kg), 28.06 ± 4.5 mg/dL. The results for the CRE in data set [1] (SALD 20 mg/kg) and in data set [1] (SALD 50 mg/kg) were 0.17 ± 0.01 mg/dL and 0.16 ± 0.04 mg/dL, respectively.
